Assay results as given in patent US20240368165A1, “SOLID STATE FORMS OF HYDROCHLORIDE SALT OF ((1S,2S,4R)-4-{4-[(1S)-2,3-DIHYDRO-1H-INDEN-1-YLAMINO]-7H-PYRROLO[2,3-D]PYRIMIDIN-7-YL}-2-HYDROXYCYCLOPENTYL)METHYL SULFAMATE” (Takeda Pharmaceutical Company Limited, priority 2020, published 2024).

Assays:
Type in all cases: physicochemical
[1] = Solid-state stability under accelerated storage, purity via HPLC; conditions: for stability with respect to change in TAK-924 chemical purity (% Area) and physical form / overall chemical and physical stability: accelerated storage; for stability with respect to change in TAK-924 chemical purity (% Area) and physical form: compared to Form 1; for overall chemical and physical stability: overall stability data
Protocol: (§1) Solid-state stability studies of Forms 1, 9, and 12 were performed to assess the relative stability of new anhydrous Forms 9 and 12. Solid samples of each pattern were stored in open and closed glass vials at accelerated conditions (40° C./75% RH open and closed, and 60° C. closed). […]

[2] = Solid-state stability under accelerated storage, polymorphic form via XRPD; conditions: T-6 Days, hydrochloride
Protocol: as §1

[3] = Solubility of solid form; conditions: pH 2.33; pH of 2.33
[4] = 40° C./75% RH Closed, T-3.5 Weeks, hydrochloride
[5] = 40° C./75% RH Closed, T-6 Days, hydrochloride
[6] = 40° C./75% RH Open, T-3.5 Weeks, hydrochloride
[7] = 40° C./75% RH Open, T-6 Days, hydrochloride
[8] = 60° C. (closed), T-3.5 Weeks, hydrochloride
[9] = 60° C. (closed), T-6 Days, hydrochloride

HPLC Purity (% Area TAK-924) [1, 4] [% Area] | HPLC Purity change from T-0 [1, 4] | HPLC Purity (% Area TAK-924) [1, 5] [% Area] | HPLC Purity change from T-0 [1, 5] | HPLC Purity (% Area TAK-924) [1, 6] [% Area] | HPLC Purity change from T-0 [1, 6] | HPLC Purity (% Area TAK-924) [1, 7] [% Area] | HPLC Purity change from T-0 [1, 7] | HPLC Purity (% Area TAK-924) [1, 8] [% Area] | HPLC Purity change from T-0 [1, 8] | HPLC Purity (% Area TAK-924) [1, 9] [% Area] | HPLC Purity change from T-0 [1, 9] | HPLC Purity (% Area TAK-924), Initial (T-0) ([1]; Initial (T-0), before accelerated storage, hydrochloride) [% Area] | XRPD Results (polymorphic form after accelerated storage) ([2]; 40° C./75% RH Closed) | XRPD Results (polymorphic form after accelerated storage) ([2]; 60° C. (closed)) | solubility [3] [µg/mL] | stability with respect to change in TAK-924 chemical purity (% Area) and physical form [1] | overall chemical and physical stability [1] | SMILES
98.1 | (−0.9%) | 98.6 | (−0.4%) | 98.8 | (−0.2%) | 98.9 | (−0.1%) | 86.6 | (−13.4%) | 94.4 | (−5.6%) | 99.0 | Form 1 | Form 1 | – | – | – | Cl.NS(=O)(=O)OC[C@@H]1C[C@@H](n2ccc3c(N[C@H]4CCc5ccccc54)ncnc32)C[C@@H]1O [Compound Form 1, ((1S,2S,4R)-4-{4-[(1S)-2,3-dihydro-1H-inden-1-ylamino]-7H-pyrrolo[2,3-d]pyrimidin-7-yl}-2-hydroxycyclopentyl)methyl sulfamate hydrochloride]
– | – | – | – | – | – | – | – | – | – | – | – | – | – | – | ~7800 | stable when compared to Form 1 | chemically and physically stable | Cl.NS(=O)(=O)OC[C@@H]1C[C@@H](n2ccc3c(N[C@H]4CCc5ccccc54)ncnc32)C[C@@H]1O [Compound Form 9, ((1S,2S,4R)-4-{4-[(1S)-2,3-dihydro-1H-inden-1-ylamino]-7H-pyrrolo[2,3-d]pyrimidin-7-yl}-2-hydroxycyclopentyl)methyl sulfamate hydrochloride]
– | – | – | – | – | – | – | – | – | – | – | – | – | – | – | – | stable when compared to Form 1 | chemically and physically stable | Cl.NS(=O)(=O)OC[C@@H]1C[C@@H](n2ccc3c(N[C@H]4CCc5ccccc54)ncnc32)C[C@@H]1O [Compound Form 12, ((1S,2S,4R)-4-{4-[(1S)-2,3-dihydro-1H-inden-1-ylamino]-7H-pyrrolo[2,3-d]pyrimidin-7-yl}-2-hydroxycyclopentyl)methyl sulfamate hydrochloride]
